Assay results as given in article PMC11768370, “Etodolac Single Dose Metabolic Profile Elucidation: Pharmacokinetics and Adverse Events in Healthy Volunteers” (Pharmaceuticals, 2025).

Experiment: Drug stability in biological fluid (LC-MS/MS method validation)
Format: in vitro ADME
Details: human plasma, LQC and HQC; freshly prepared, post-processing (auto-injector, 73:43 hours), short-term (72:21 hours), freeze-thaw (4 cycles) at -20 °C and -70 °C, long-term 90 days at -20 °C and -70 °C; demonstrating stability
Procedure: criteria for RE and CV must not exceed 15% for QC and 20% for LLOQ. All stability assays were performed to cover the conditions anticipated for handling real samples: freshly prepared, post-processing, short-term, freeze–thaw, and long-term were evaluated at concentrations of LQC and HQC. RE and CV were used to check possible variations.
2.4. Determination of Etodolac Pharmacokinetic
Following Food and Drug Administration (FDA) guidelines, blood samples were drawn up to a period of three to ﬁve times the terminal elimination half-life (t1/2), and the mean AUC0–t/AUC0–∞ ratio was required to be higher than 80%. The area under the concentration–time curve (AUC0–t) was calculated from time 0 to time t. The total area under the curve (AUC0–∞) was obtained up to […], and extrapolations were performed using the last measurable concentration and the terminal elimination rate constant (Ke). The terminal elimination rate constant, Ke, was estimated from the slope of the terminal […] of the plasma of the etodolac concentration–time curve (by means of the linear regression method) adjusted in the last three values. The terminal elimination half-life, t1/2, was then obtained as 0.693/Ke. […]

## CCc1cccc2c3c([nH]c12)C(CC)(CC(=O)O)OCC3 (stereo not shown) [Etodolac]
  drug stability in biological fluid: precision and accuracy values: below 15%
